Counter-ions that a name gives are not always drawn. Like-named read-outs stand apart in the source and are kept apart here. One block for each compound: values may come before it.
Legend:
in vivo = conditions: mouse, mice, mortality 7 days after administration
Experimental: 20-30 g b.w., were obtained from Charles River, Italy. Animals were housed with free access to food and water and maintained on forced light-dark cycle at 22°-24° C. until the day of experiments.
The acute toxicity of synthesized compounds was evaluated in female Albino Swiss mice after intraperitoneal and oral administration. Four logarithmic scaled doses of the compounds were dissolved or suspended in 0.5% Methocel and administered in a volume of 10 ml/kg to groups of 4 mice/dose. Mortality was recorded 7 days after the administration.

[1] = target: α1-receptors ([3H]prazosin); assay: [3H]Prazosin binding (α1-receptors), rat cerebral cortices; conditions: rat cerebral cortex, 0.35 nM [3H]prazosin, 25° C., 30 min; read-out: [3H] prazosine IC50
Experimental: Rat cerebral cortices were homogenized in 50 volumes of original wet weight of ice-cold 50 mM Tris-HCl buffer pH 7.4. The homogenates were centrifuged at 48,000 × g for 10 minutes, and the pellets were resuspended in the same volume of ice-cold buffer, centrifuged and resuspended two more times. […] The incubations were terminated by rapid filtration through Whatman GF/B, filters using a Brandel cell harvester and the filters were washed with 3×3 ml of ice-cold buffer. The radioactivity retained on the filters was determined by liquid scintillation counting. Data analysis The inhibition of specific binding of the radioligands by the tested drugs was analyzed to estimate the IC50 value by using the non-linear curve-fitting program Allfit [A. De Lean et al., Am. J. Physiol.

[2] = ip, intraperitoneal, read-out: DL50 i.p.

Structure (SMILES): COc1cc2nc(N3CCN(C(=O)COc4ccccc4OC)CC3)nc(N)c2cc1OC.Cl [Example 23, 4-Amino-6,7-dimethoxy-2-[4-(2-methoxyphenoxyacetyl)-1-piperazinyl]-quinazoline hydrochloride]
LD50 at 168 h (in vivo; [2]): 337 mg/kg
LD50 at 168 h (in vivo; oral, read-out: DL50 p.o.): > 2000 mg/kg

Structure (SMILES): COc1cc2nc(N3CCN(Cc4ccccc4)CC3)nc(N)c2cc1OC [Example 1, 4-Amino-6,7-dimethoxy-2-(4-benzyl-1-piperazinyl)-guinazoline bihydrochloride hemihydrate]
LD50 at 168 h (in vivo; [2]): 76 mg/kg
LD50 at 168 h (in vivo; oral, read-out: DL50 p.o.): 301 mg/kg
IC50 [1]: 32 nM

Structure (SMILES): COc1cc2nc(N(C)CCC(c3ccccc3)c3ccccc3)nc(N)c2cc1OC [Example 29, 4-Amino-6,7-dimethoxy-2-(N-methyl-3,3-diphenylpropylamino)-guinazoline hydrochloride]
LD50 at 168 h (in vivo; [2]): 163 mg/kg
LD50 at 168 h (in vivo; oral, read-out: DL50 p.o.): > 2000 mg/kg
IC50 [1]: 85 nM

Structure (SMILES): COc1cc2nc(N3CCN(C(=O)CC(c4ccccc4)c4ccccc4)CC3)nc(N)c2cc1OC [Example 4, 4-Amino-6,7-dimethoxy-2-[4-(3,3-diphenylpropionyl)-1-piperazinyl]-guinazoline hydrochloride]
LD50 at 168 h (in vivo; [2]): 97 mg/kg
LD50 at 168 h (in vivo; oral, read-out: DL50 p.o.): > 3000 mg/kg
IC50 [1]: 3 nM

Structure (SMILES): COc1cc2nc(N3CCN(C(=O)CC(O)c4ccccc4)CC3)nc(N)c2cc1OC (stereo not drawn) [Example 14, 4-Amino-6,7-dimethoxy-2-[4-(3-hydroxy-3-phenylpropionyl)-1-piperazinyl]-quinazoline]
LD50 at 168 h (in vivo; [2]): > 1000 mg/kg
LD50 at 168 h (in vivo; oral, read-out: DL50 p.o.): > 3000 mg/kg
IC50 [1]: 19 nM

IC50 [1]: 6 nM
Structure (SMILES): COc1cc2nc(N3CCN(C(=O)COc4c(OC)cccc4OC)CC3)nc(N)c2cc1OC [Example 27, 4-Amino-6,7-dimethoxy-2-[4-(2,6-dimethoxyphenoxy)acetyl-1-piperazinyl]-quinazoline hydrochloride . 0.25 H2 O]

Structure (SMILES): COc1cc2nc(N(C)CCCN3CCN(c4ccccc4OC)CC3)nc(N)c2cc1OC.Cl.Cl.O.O [Example 31, 4-Amino-6,7-dimethoxy-2-{N-methyl-N-{3-[4-(2-methoxyphenyl)-1-piperazinyl]propyl}amino}-quinazoline dihydrochloride dihydrate]
LD50 at 168 h (in vivo; [2]): 70 mg/kg
LD50 at 168 h (in vivo; oral, read-out: DL50 p.o.): > 2000 mg/kg
IC50 [1]: 12 nM

Structure (SMILES): COc1cc2nc(N3CCN(C(=O)NCCN(C)C)CC3)nc(N)c2cc1OC.Cl.Cl.O.O.O.O [Example 10, 4-Amino-6,7-dimethoxy-2-{4-[(2-dimethylaminoethyl)amino-carbonyl]-1-piperazinyl}-quinazoline dihydrochloride tetrahydrate]
LD50 at 168 h (in vivo; [2]): 23 mg/kg
LD50 at 168 h (in vivo; oral, read-out: DL50 p.o.): 1350 mg/kg
IC50 [1]: 55 nM

Structure (SMILES): COc1cc2nc(N3CCC(c4ccccc4)(c4ccccc4)CC3)nc(N)c2cc1OC [Example 32, 4-Amino-6,7-dimethoxy-2-(4,4-diphenyl-1-piperidinyl)-guinazoline hydrochloride . 0.65 H2 O]
LD50 at 168 h (in vivo; [2]): > 500 mg/kg
LD50 at 168 h (in vivo; oral, read-out: DL50 p.o.): > 2000 mg/kg
IC50 [1]: 259 nM

Structure (SMILES): COc1cc2nc(N3CCN(C(=O)CCNC(=O)OCc4ccccc4)CC3)nc(N)c2cc1OC [Example 5, 4-Amino-6,7-dimethoxy-2-{4-[(3-benzyloxycarbonylamino)propionyl]-1-piperazinyl}-quinazoline hydrochloride emihydrate]
LD50 at 168 h (in vivo; [2]): 300 mg/kg
LD50 at 168 h (in vivo; oral, read-out: DL50 p.o.): > 3000 mg/kg
IC50 [1]: 283 nM

Structure (SMILES): COc1cc2nc(N3CCN(C(=O)CNC(=O)CNC(=O)OCc4ccccc4)CC3)nc(N)c2cc1OC [Example 12, 4-Amino-6,7-dimethoxy-2-{4-[2-[2-(benzyloxycarbonylamino)-acetylamino]acetyl]-1-piperazinyl}-quinazoline hydrochloride hemihydrate]
LD50 at 168 h (in vivo; [2]): 1130 mg/kg
LD50 at 168 h (in vivo; oral, read-out: DL50 p.o.): > 2000 mg/kg
IC50 [1]: 29 nM

Structure (SMILES): COc1cc2nc(N3CCN(C(=O)CCCNC(=O)OCc4ccccc4)CC3)nc(N)c2cc1OC [Example 6, 4-Amino-6,7-dimethoxy-2-{4-[(4-benzyloxycarbonylamino)butirryl]-1-piperazinyl}-quinazoline hydrochloride . 1.5 H2 O]
LD50 at 168 h (in vivo; [2]): > 1000 mg/kg
LD50 at 168 h (in vivo; oral, read-out: DL50 p.o.): > 3000 mg/kg
IC50 [1]: 29 nM

Structure (SMILES): CCOC(=O)CC(=O)N1CCN(c2nc(N)c3cc(OC)c(OC)cc3n2)CC1.Cl [Example 18, 4-Amino-6,7-dimethoxy-2-[4-(2-ethoxycarbonylacetyl)-1-piperazinyl]-quinazoline hydrochloride]
LD50 at 168 h (in vivo; [2]): > 1000 mg/kg
LD50 at 168 h (in vivo; oral, read-out: DL50 p.o.): > 3000 mg/kg
IC50 [1]: 54 nM

Structure (SMILES): COc1cc2nc(N3CCN(C(=O)C(C)Oc4c(OC)cccc4C(C)C)CC3)nc(N)c2cc1OC.Cl (stereo not drawn) [Example 26, 4-Amino-6,7-dimethoxy-2-{4-[2-(2-methoxy-6-isopropylphenoxy)propionyl]-1-piperazinyl}-quinazoline hydrochloride]
LD50 at 168 h (in vivo; [2]): 115 mg/kg
LD50 at 168 h (in vivo; oral, read-out: DL50 p.o.): 1960 mg/kg
IC50 [1]: 123 nM

Structure (SMILES): COc1cc2nc(N3CCN(C(=O)CCC(=O)c4ccccc4)CC3)nc(N)c2cc1OC.Cl.O [Example 15, 4-Amino-6,7-dimethoxy-2-{4-[(3-benzoyl)propionyl]-1-piperazinyl}-quinazoline hydrochloride hydrate]
LD50 at 168 h (in vivo; [2]): > 1000 mg/kg
LD50 at 168 h (in vivo; oral, read-out: DL50 p.o.): > 3000 mg/kg
IC50 [1]: 15 nM

Structure (SMILES): COc1cc2nc(N3CCN(C(=O)CCC(O)c4ccccc4)CC3)nc(N)c2cc1OC (stereo not drawn) [Example 16, 4-Amino-6,7-dimethoxy-2-[4-(4-phenyl-4-hydroxybutirryl)-1-piperazinyl]-quinazoline maleate (1:1)]
LD50 at 168 h (in vivo; [2]): 253 mg/kg
LD50 at 168 h (in vivo; oral, read-out: DL50 p.o.): > 3000 mg/kg
IC50 [1]: 17 nM

Structure (SMILES): COc1cc2nc(N3CCN(C(=O)COc4cc(C)ccc4C(C)C)CC3)nc(N)c2cc1OC [Example 25, 4-Amino-6,7-dimethoxy-2-{4-[(2-isopropyl-5-methylphenoxy)acetyl]-1-piperazinyl}-quinazoline hydrochloride . 0.25 H2 O]
LD50 at 168 h (in vivo; [2]): 346 mg/kg
LD50 at 168 h (in vivo; oral, read-out: DL50 p.o.): > 3000 mg/kg
IC50 [1]: 157 nM

Structure (SMILES): COc1cc2nc(N(C)Cc3ccccc3)nc(N)c2cc1OC [Example 28, 4-Amino-6,7-dimethoxy-2-(N-benzyl-N-methylamino)-guinazoline hydrochloride]
LD50 at 168 h (in vivo; [2]): 89 mg/kg
LD50 at 168 h (in vivo; oral, read-out: DL50 p.o.): 293 mg/kg
IC50 [1]: 70 nM

Structure (SMILES): COc1cc2nc(N3CCN(C(=O)CCCN)CC3)nc(N)c2cc1OC [Example 8, 4-Amino-6,7-dimethoxy-2-[4-(4-aminobutirryl)-1-piperazinyl]-guinazoline dihydrobromide . 0.25 H2 O]
LD50 at 168 h (in vivo; [2]): 219 mg/kg
LD50 at 168 h (in vivo; oral, read-out: DL50 p.o.): > 3000 mg/kg
IC50 [1]: 47 nM

Structure (SMILES): COc1cc2nc(N3CCN(C(=O)CCN)CC3)nc(N)c2cc1OC [Example 7, 4-Amino-6,7-dimethoxy-2-[4-(3-aminopropionyl)-1-piperazinyl]-guinazoline dihydrobromide . 1.75 H2 O]
LD50 at 168 h (in vivo; [2]): 187 mg/kg
LD50 at 168 h (in vivo; oral, read-out: DL50 p.o.): > 3000 mg/kg
IC50 [1]: 48 nM

IC50 [1]: 105 nM
Structure (SMILES): COc1cc2nc(N3CCN(C(=O)CC(N)=O)CC3)nc(N)c2cc1OC [Example 17, 4-Amino-6,7-dimethoxy-2-[4-(3-oxo-3-aminopropionyl)-1-piperazinyl]-quinazoline hydrochloride hydrate]

Structure (SMILES): CCCCNC(=O)CC(=O)N1CCN(c2nc(N)c3cc(OC)c(OC)cc3n2)CC1.Cl [Example 19, 4-Amino-6,7-dimethoxy-2-[4-(3-n-butylamino-3-oxopropionyl)-1-piperazinyl]-quinazoline hydrochloride]
LD50 at 168 h (in vivo; [2]): 459 mg/kg
LD50 at 168 h (in vivo; oral, read-out: DL50 p.o.): > 2000 mg/kg
IC50 [1]: 96 nM

IC50 [1]: 40 nM
Structure (SMILES): COc1cc2nc(N3CCN(C(c4ccccc4)c4ccccc4)CC3)nc(N)c2cc1OC [Example 2, 4-Amino-6,7-dimethoxy-2-(4-diphenylmethyl-1-piperazinyl)-guinazoline bihydrochloride emihydrate]

Structure (SMILES): COc1cc2nc(N3CCN(C(=O)C(C)(C)Oc4ccccc4)CC3)nc(N)c2cc1OC [Example 21, 4-Amino-6,7-dimethoxy-2-[4-(2-phenoxy-2-methylpropionyl)-1-piperazinyl]-quinazoline hydrochloride . 1.5 H2 O]
LD50 at 168 h (in vivo; [2]): 206 mg/kg
LD50 at 168 h (in vivo; oral, read-out: DL50 p.o.): > 1700 mg/kg
IC50 [1]: 99 nM

Structure (SMILES): COc1cc2nc(N3CCN(C(=O)C(c4ccccc4)c4ccccc4)CC3)nc(N)c2cc1OC [Example 3, 4-Amino-6,7-dimethoxy-2-[4-(2,2-diphenylacetyl)-1-piperazinyl]-quinazoline hydrochloride . 0.75 H2 O]
LD50 at 168 h (in vivo; [2]): 112 mg/kg
LD50 at 168 h (in vivo; oral, read-out: DL50 p.o.): 868 mg/kg
IC50 [1]: 5 nM

Structure (SMILES): COc1cc2nc(N3CCN(C(=O)CCCNS(C)(=O)=O)CC3)nc(N)c2cc1OC [Example 9, 4-Amino-6,7-dimethoxy-2-{4-[(4-methylsulfonylamino)butirry]-1-piperazinyl}-quinazoline hydrochloride]
LD50 at 168 h (in vivo; [2]): > 500 mg/kg
IC50 [1]: 86 nM

IC50 [1]: 5 nM
Structure (SMILES): COc1cc2nc(N3CCc4c(ccc5ccccc45)C3)nc(N)c2cc1OC [Example 30, 4-Amino-6,7-dimethoxy-2-(1,2,3,4-tetrahydrobenzo[f]isoquinolin-2-yl)-quinazoline . 0.25 ethanole]

IC50 [1]: 67 nM
Structure (SMILES): COc1cc2nc(N3CCN(C(=O)CC(=O)Nc4ccccc4)CC3)nc(N)c2cc1OC [Example 20, 4-Amino-6,7-dimethoxy-2-[4-(phenylaminocarbonylacetyl)-1-piperazinyl]-quinazoline hydrochloride hemihydrate]
